Laboratory results published in paper PMC8545353 (ACS chemical biology, 2021).
≈ marks a conversion by molar mass, not a printed value. Non-standard residues stand in square brackets, D forms with d. Residues, ends and D or L forms follow the SMILES beside them. NMeY = CN[C@@H](Cc1ccc(O)cc1)C(=O)O; dNMeF = CN[C@H](Cc1ccccc1)C(=O)O; Sar = CNCC(=O)O

Test: physchem
Conditions: aqueous

## CC[C@H](C)[C@@H]1NC(=O)[C@H](Cc2ccc(O)cc2)N(C)C(=O)[C@H](Cc2ccccc2)NC(=O)CN(C)C(=O)[C@@H]2CCCN2C(=O)[C@@H](Cc2ccccc2)N(C)C(=O)[C@H](CC(C)C)NC1=O [Compound 1, cordyheptapeptide A] (cyclo(F[NMeY]IL[dNMeF]P[Sar]))
  solubility: 3.9 µM (≈ 3.43 µg/mL)
